Measured values taken from ChEMBL document CHEMBL5674860, “Optimized Dual-Glo Assay to identify co-culture-induced drug vulnerabilities in 3D CRC models” (2024).

How the values were obtained:
Type in all cases: functional, Homo sapiens
Parameters in all cases: dose or concentration left out as unconfirmed
Colon cancer organoid [1] = assay: Optimized Dual-Glo assay to identify co-culture induced drug vulnerabilities using donated chemical probes and chemogenomics kinase set in O06 CRC organoid and F06 CAF mono and co-culture. […] Cell viability is reported both mono and co-culture models.
Colon cancer organoid [2] = assay: Optimized Dual-Glo assay to identify co-culture induced drug vulnerabilities using donated chemical probes and chemogenomics kinase set in O14 CRC organoid and F14 CAF mono and co-culture. […] Cell viability is reported both mono and co-culture models.
Colon cancer organoid [3] = assay: Optimized Dual-Glo assay to identify co-culture induced drug vulnerabilities using donated chemical probes and chemogenomics kinase set in O20 CRC organoid and F20 CAF mono and co-culture. […] Cell viability is reported both mono and co-culture models.
[4] = Culture type Co-Culture, Transduced with Lucferase2-P2A-EGFP lentivirus
[5] = Culture type Co-Culture, Transduced with Renilla-dsRed lentivirus
[6] = Culture type Mono-Culture, Transduced with Lucferase2-P2A-EGFP lentivirus
[7] = Culture type Mono-Culture, Transduced with Renilla-dsRed lentivirus

Compound | Cell Viability (Colon cancer organoid [1]; [4]) [%] | Cell Viability (Colon cancer organoid [1]; [5]) [%] | Cell Viability (Colon cancer organoid [1]; [6]) [%] | Cell Viability (Colon cancer organoid [1]; [7]) [%] | Cell Viability (Colon cancer organoid [2]; [4]) [%] | Cell Viability (Colon cancer organoid [2]; [5]) [%] | Cell Viability (Colon cancer organoid [2]; [6]) [%] | Cell Viability (Colon cancer organoid [2]; [7]) [%] | Cell Viability (Colon cancer organoid [3]; [4]) [%] | Cell Viability (Colon cancer organoid [3]; [5]) [%] | Cell Viability (Colon cancer organoid [3]; [6]) [%] | Cell Viability (Colon cancer organoid [3]; [7]) [%]
N#CN1CC[C@H](C(=O)Nc2nc3c(s2)CN(C(=O)CN=[N+]=[N-])CC3)C1 [8RK64] | 104.648 | 104.354 | 102.804 | 85.3904 | 91.8118 | 102.385 | 81.5329 | 88.8457 | 67.2995 | 105.29 | 57.1131 | 75.6901
CN(C)[C@@H]1CCN(c2cc(-c3ccccc3)nc3ccnn23)C1 [(R)-ZINC-3573] | 122.992 | 121.371 | 72.8757 | 94.4779 | 103.063 | 100.336 | 115.069 | 113.962 | 97.0418 | 99.7993 | 84.3174 | 93.0838
CN(C)[C@H]1CCN(c2cc(-c3ccccc3)nc3ccnn23)C1 [(S)-ZINC-3573] | 87.7689 | 121.05 | 76.4871 | 118.538 | 106.455 | 83.2705 | 93.2108 | 87.5469 | 92.3796 | 112.128 | 114.664 | 102.75
Cn1cncc1[C@@](O)(COc1ccc(C#N)cc1-c1ccc(OC(F)(F)F)cc1)c1ccc(C#N)cc1 [A-108] | 113.578 | 151.877 | 88.7228 | 108.002 | 57.9117 | 92.8032 | 90.1674 | 97.2035 | 89.1467 | 110.638 | 65.4211 | 112.38
CCC(=N\O)/C(C)=C/c1ccc(F)c(C)c1 [A-226] | 127.798 | 151.161 | 120.98 | 100.434 | 99.1206 | 103.384 | 109.979 | 105.569 | 93.31 | 115.263 | 126.956 | 103.634
CCCCN(CCCC)C(=O)CN1C[C@@H](c2cc(OC)c3c(c2)OCO3)[C@H](C(=O)O)[C@H]1CC(C)(C)CCC [A-545] | 124.297 | 133.906 | 113.751 | 92.0951 | 105.072 | 96.9928 | 119.694 | 109.859 | 123.099 | 97.2502 | 106.602 | 112.439
CSc1cccnc1N1CCN(Cc2nc3ccccc3[nH]2)CC1 [A-769] | 120.489 | 139.823 | 101.067 | 109.755 | 93.5096 | 109.84 | 108.274 | 96.7022 | 125.432 | 98.3481 | 117.315 | 102.928
CN(C)CC#Cc1ccc(OCCCc2sc(N3CCc4cccc(C(=O)Nc5nc6ccccc6s5)c4C3)nc2C(=O)O)c(F)c1 [A-1155463] | 0.3385 | 128.541 | 0.4136 | 37.2528 | 48.5807 | 127.556 | 26.2999 | 75.159 | 1.175 | 177.943 | 3.867 | 58.9374
CO[C@H]1CC[C@H](CNc2ccc(S(=O)(=O)NC(=O)c3ccc(N4CCN(CC5=C(c6ccc(Cl)cc6)CC(C)(C)CC5)CC4)cc3Oc3cnc4[nH]ccc4c3)cc2[N+](=O)[O-])CC1 [A-1211212] | 8.693 | 108.861 | 18.6642 | 86.311 | 35.4826 | 44.6988 | 55.1244 | 87.836 | 16.3832 | 159.244 | 32.5112 | 71.0169
COc1ccc2c(c1)O[C@H](c1ccc(OC)c(OC)c1)C[C@@H]2NC(=O)C1(c2ccc3c(c2)OC(F)(F)O3)CC1 [A-1596584] | 86.7173 | 88.6658 | 66.4869 | 108.119 | 97.6687 | 114.369 | 74.3649 | 92.2647 | 72.8626 | 142.746 | 90.2448 | 98.4012
COc1ccc2c(c1)O[C@@H](c1ccc(OC)c(OC)c1)C[C@H]2NC(=O)C1(c2ccc3c(c2)OC(F)(F)O3)CC1 [A-1596586] | 95.9961 | 117.187 | 95.5945 | 101.185 | 96.097 | 118.297 | 94.5524 | 101.637 | 84.3805 | 101.93 | 87.5429 | 80.1817
CCNC(=O)c1cc2c(-c3cc(C(C)(C)O)ccc3Oc3c(C)cc(F)cc3C)cn(C)c(=O)c2[nH]1 [ABBV-744] | 91.6049 | 287.135 | 45.0108 | 272.327 | 55.2801 | 319.971 | 42.072 | 212.265 | 58.1744 | 215.224 | 60.9117 | 122.12
CC#CC(=O)N1CCC[C@H]1c1nc(-c2ccc(C(=O)Nc3ccccn3)cc2)c2c(N)nccn12 [ACALABRUTINIB] | 96.562 | 83.4698 | 98.0139 | 99.6421 | 70.2708 | 100.717 | 59.6403 | 100.701 | 96.1769 | 99.9657 | 56.8336 | 71.1135
